Measurements from patent publication US20030114445A1, “N3-substituted 6-anilinopyrimidines and methods to treat-Gram-positive bacterial and mycoplasmal infections” (priority 2001, published 2003).
≈ marks a conversion by molar mass, not a printed value. Where two headings read alike, the source gives them in different places.

How the values were obtained:
B.subtilis pol IIIC = B.subtilis pol IIIC (Bacillus subtilis, UniProt P13267); test: biochemical
Description: DNA pol activity was assayed as described in Barnes et al., Nuc. Acids Res., 6:1203-19 (1979), using activated “nicked” calf-thymus DNA as template primer, 10 pM [^3H-methyl]-dTTP as the labelled dNTP substrate, and dATP, dCTP, and dGTP at 25 μM each.
Inhibitory activity of the compounds is determined by measuring the ability of the agent to inhibit enzyme-catalyzed incorporation of [^3H]-dTMP into nicked calf thymus DNA in the absence of the competitor dGTP or dATP (“truncated assay”) (see G. E. Wright and N. C. Brown, Inhibition of Bacillus subtilis DNA Polymerase III by Arylhydrazinopyrimidines: Novel Properties of 2-Thiouracil Derivatives, Biochim. Biophys. Acta 432:37-48 (1976)). Purified pol IIIC is added to a buffered solution containing Mg^2+, DTT, glycerol, nicked calf thymus DNA, saturating concentrations of dATP, dCTP, dTTP and [^3H]-dTTP. Reaction mixtures are incubated at 30° C. for 10 minutes, quenched and filtered, and radioactivity in the acid-insoluble material measured by scintillation counting. Experiments are done in triplicate. Inhibitors are assayed by addition of several dilutions of a stock solution of inhibitor (DMSO or water, depending on solubility) before enzyme addition. […] The truncated assay, i.e. exclusion of the competitive substrate dGTP or dATP, depending upon whether the compound is a uracil derivative or an isocytosine derivative, respectively, allows for the direct determination of apparent inhibitor constants (K,) in this assay system.

B. subtilis = test: Inhibition of bacterial growth on agar plates (MIC); assay type: cell-based; settings: Bacillus subtilis, 37° C., 24 hours
Description: (§1) Each compound is assayed against a panel of Bacillus, Enterococcus and Staphylococcus, and a Gram-negative bacterium Escherichia coli as negative control, grown in appropriate plate media solidified with 1.3% agar-agar. Stock solutions of the compounds in dimethylsulfoxide or water, depending on solubility, are added to sterile medium at a temperature of 60° C. […] One tenth mL of diluted bacteria containing 500-1000 colony-forming units (CFU) are plated and spread, and the plates incubated at 37° C. for 24 hours. MIC (minimum inhibitory concentration) is equivalent to the lowest concentration at which growth, i.e. colony formation, is not observed.

E. fecalis = test: as above; assay type: cell-based; settings: 37° C., 24 hours
Description: as §1

E. fecium = test: as above; assay type: cell-based; settings: 37° C., 24 hours
Description: as §1

S.aureus (Smith) = test: as above; assay type: cell-based; settings: Staphylococcus aureus, 37° C., 24 hours
Description: as §1

Sequence of B.subtilis pol IIIC (P13267 whole entry): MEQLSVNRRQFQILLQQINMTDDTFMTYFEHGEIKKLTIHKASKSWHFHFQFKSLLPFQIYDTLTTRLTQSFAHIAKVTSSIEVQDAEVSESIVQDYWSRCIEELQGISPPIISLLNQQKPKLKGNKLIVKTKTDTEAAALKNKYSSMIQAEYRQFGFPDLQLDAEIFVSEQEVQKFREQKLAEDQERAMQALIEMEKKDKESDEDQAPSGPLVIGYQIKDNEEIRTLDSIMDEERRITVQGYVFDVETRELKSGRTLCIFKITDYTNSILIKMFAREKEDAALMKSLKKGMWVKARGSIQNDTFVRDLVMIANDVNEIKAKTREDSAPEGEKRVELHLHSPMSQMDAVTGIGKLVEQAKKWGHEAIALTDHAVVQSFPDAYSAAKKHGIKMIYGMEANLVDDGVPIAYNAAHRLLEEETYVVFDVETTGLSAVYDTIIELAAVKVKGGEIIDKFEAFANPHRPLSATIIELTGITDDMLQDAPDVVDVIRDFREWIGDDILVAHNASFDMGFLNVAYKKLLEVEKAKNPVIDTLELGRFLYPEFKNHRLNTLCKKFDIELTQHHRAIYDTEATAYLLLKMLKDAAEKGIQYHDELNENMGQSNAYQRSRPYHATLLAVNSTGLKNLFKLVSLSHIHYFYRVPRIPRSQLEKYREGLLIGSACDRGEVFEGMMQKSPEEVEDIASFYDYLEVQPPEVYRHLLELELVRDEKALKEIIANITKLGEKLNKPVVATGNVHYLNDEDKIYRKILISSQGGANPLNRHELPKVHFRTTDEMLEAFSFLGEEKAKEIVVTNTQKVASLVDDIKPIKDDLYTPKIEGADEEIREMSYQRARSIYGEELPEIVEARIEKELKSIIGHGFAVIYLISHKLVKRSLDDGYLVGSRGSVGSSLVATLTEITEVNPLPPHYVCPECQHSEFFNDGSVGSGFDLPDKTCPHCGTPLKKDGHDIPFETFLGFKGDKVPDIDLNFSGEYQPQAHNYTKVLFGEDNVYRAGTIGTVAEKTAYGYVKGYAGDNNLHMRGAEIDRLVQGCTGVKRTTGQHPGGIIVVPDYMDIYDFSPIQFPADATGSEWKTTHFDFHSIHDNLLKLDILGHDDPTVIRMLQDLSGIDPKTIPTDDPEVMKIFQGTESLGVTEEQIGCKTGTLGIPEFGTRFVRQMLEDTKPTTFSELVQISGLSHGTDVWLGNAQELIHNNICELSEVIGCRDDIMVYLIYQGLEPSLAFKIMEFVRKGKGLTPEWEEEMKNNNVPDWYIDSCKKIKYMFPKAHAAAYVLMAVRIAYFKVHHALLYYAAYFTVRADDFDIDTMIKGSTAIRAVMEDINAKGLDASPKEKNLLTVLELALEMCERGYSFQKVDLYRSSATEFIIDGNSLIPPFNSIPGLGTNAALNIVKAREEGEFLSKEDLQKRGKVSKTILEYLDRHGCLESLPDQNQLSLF

| Structure (SMILES) | Ki (B.subtilis pol IIIC) [nM] | MIC (B. subtilis) [µg/mL] | MIC (E. fecalis) [µg/mL] | MIC (E. fecium) [µg/mL] | MIC (S.aureus (Smith)) [µg/mL] | Ki (B.subtilis pol IIIC; truncated assay, apparent inhibitor constant, read-out: K1 B.subtilis pol IIIC) [nM] |
| --- | --- | --- | --- | --- | --- | --- |
| CCc1cc(Nc2cc(=O)n(CCCCNC(=O)CCl)c(=O)[nH]2)ccc1C [Compound 50, 3-{4-[(chloromethylcarbonyl)amino]butyl}-6-(3-ethyl-4-methylanilino)uracil] | 35 | 2.5 (≈ 6.36 µM) | 5 (≈ 12.7 µM) | 10 (≈ 25.5 µM) | 5 (≈ 12.7 µM) | – |
| CCc1cc(Nc2cc(=O)n(CCCCCNC(=O)c3cc4ccccc4s3)c(=O)[nH]2)ccc1C [Compound 77, 3-[5-(2-benzo[b]thiophenecarboxamido)pentyl]-6-(3-ethyl-4-methylanilino)uracil] | 480 | 80 (≈ 163 µM) | 80 (≈ 163 µM) | 80 (≈ 163 µM) | 80 (≈ 163 µM) | – |
| CCc1cc(Nc2cc(=O)n(CC(C)CO)c(=O)[nH]2)ccc1C (stereo not shown) [Compound 25, 3-(3-Hydroxy-2-methylpropyl)-6-(3-ethyl-4-methylanilino)uracil] | 110 | < 1.25 | 5 (≈ 15.8 µM) | 2.5 (≈ 7.88 µM) | 5 (≈ 15.8 µM) | – |
| CCc1cc(Nc2cc(=O)n(CCCCCNc3ncc(C#N)c(N)n3)c(=O)[nH]2)ccc1C [Compound 66, 3-{5-[(4-amino-5-cyano-2-pyrimidinyl)amino]pentyl}-6-(3-ethyl-4-methylanilino)uracil] | 39500 | 80 (≈ 178 µM) | 80 (≈ 178 µM) | 80 (≈ 178 µM) | 80 (≈ 178 µM) | – |
| CCc1cc(Nc2cc(=O)n(CC(=O)N(CC)CC)c(=O)[nH]2)ccc1C [Compound 11, 3-[(N,N-Diethylaminocarbonyl)methyl]-6-(3-ethyl-4-methylanilino)uracil] | 450 | 2.5 (≈ 6.97 µM) | 20 (≈ 55.8 µM) | 20 (≈ 55.8 µM) | 10 (≈ 27.9 µM) | – |
| CCc1cc(Nc2cc(=O)n(CCN(CC)CC)c(=O)[nH]2)ccc1C [Compound 14, 3-[2-(N,N-diethylamino)ethyl]-6-(3-ethyl-4-methylanilino)uracil] | 530 | 10 (≈ 29 µM) | 20 (≈ 58.1 µM) | 20 (≈ 58.1 µM) | 20 (≈ 58.1 µM) | – |
| CCOC(=O)C1CN(CCCCCn2c(=O)cc(Nc3ccc(C)c(CC)c3)[nH]c2=O)CCC1=O (stereo not shown) [Compound 78, 3-{5-(3-ethoxycarbonyl-4-oxopiperidinyl)pentyl}-6-(3-ethyl-4-methylanilino)uracil] | 250 | 80 (≈ 165 µM) | 80 (≈ 165 µM) | 80 (≈ 165 µM) | 80 (≈ 165 µM) | – |
| CCc1cc(Nc2cc(=O)n(CCCCN3CC=C(c4ccc5c(c4)OCO5)CC3)c(=O)[nH]2)ccc1C [Compound 80, 3-{4-[4-(3,4-dioxomethylenephenyl-1,2,3,6-tetrahydropyridinyl)]butyl}-6-(3-ethyl-4-methylanilino)uracil] | 24 | 2.5 (≈ 4.97 µM) | 5 (≈ 9.95 µM) | 5 (≈ 9.95 µM) | 10 (≈ 19.9 µM) | – |
| CCc1cc(Nc2cc(=O)n(CCCCCCCCO)c(=O)[nH]2)ccc1C [Compound 18, 3-(8-Hydroxyoctyl)-6-(3-ethyl-4-methylanilino)uracil] | 26 | 1.25 (≈ 3.35 µM) | 2.5 (≈ 6.69 µM) | 2.5 (≈ 6.69 µM) | 2.5 (≈ 6.69 µM) | – |
| CCc1cc(Nc2cc(=O)n(C/C=C/CO)c(=O)[nH]2)ccc1C [Compound 32, 3-(4-Hydroxy-2-butenyl)-6-(3-ethyl-4-methylanilino)uracil] | 51 | 1.25 (≈ 3.96 µM) | 5 (≈ 15.9 µM) | 2.5 (≈ 7.93 µM) | 5 (≈ 15.9 µM) | – |
| CCc1cc(Nc2cc(=O)n(CCOCCOC)c(=O)[nH]2)ccc1C [Compound 12, 3-[2-(2-Methoxyethoxy)ethyl]-6-(3-ethyl-4-methylanilino)uracil] | 45 | 2.5 (≈ 7.2 µM) | 5 (≈ 14.4 µM) | 5 (≈ 14.4 µM) | 2.5 (≈ 7.2 µM) | – |
| CCOC(=O)CCCCn1c(=O)cc(Nc2ccc(C)c(CC)c2)[nH]c1=O [Compound 6, 3-(4-Ethoxycarbonylbutyl)-6-(3-ethyl-4-methylanilino)uracil] | 76 | < 1.25 | 5 (≈ 13.4 µM) | < 1.25 | 2.5 (≈ 6.69 µM) | – |
| CCc1cc(Nc2cc(=O)n(CCNS(C)(=O)=O)c(=O)[nH]2)ccc1C [Compound 16, 3-[2-(Methanesulfonylamino)ethyl]-6-(3-ethyl-4-methylanilino)uracil] | 290 | 5 (≈ 13.6 µM) | 20 (≈ 54.6 µM) | 10 (≈ 27.3 µM) | 10 (≈ 27.3 µM) | – |
| CCc1cc(Nc2cc(=O)n(CCCCCN3CCc4c([nH]c5ccc(OC)cc45)C3)c(=O)[nH]2)ccc1C [Compound 69] | 109 | 5 (≈ 9.7 µM) | 20 (≈ 38.8 µM) | 20 (≈ 38.8 µM) | 10 (≈ 19.4 µM) | – |
| CCc1cc(Nc2cc(=O)n(CCCCCNC[C@H]3CCNC3)c(=O)[nH]2)ccc1C [Compound 63, 3(S)-{5-[(3-pyrrolidinyl)methylamino]pentyl}-6-(3-ethyl-4methylanilino)uracil] | 112 | 20 (≈ 48.4 µM) | 80 (≈ 193 µM) | 80 (≈ 193 µM) | 40 (≈ 96.7 µM) | – |
| CCc1cc(Nc2cc(=O)n(CCCC(O)CO)c(=O)[nH]2)ccc1C (stereo not shown) [Compound 23, 3-(4,5-Dihydroxypentyl)-6-(3-ethyl-4-methylanilino)uracil] | 96 | 10 (≈ 28.8 µM) | 20 (≈ 57.6 µM) | 20 (≈ 57.6 µM) | 20 (≈ 57.6 µM) | – |
| CCc1cc(Nc2cc(=O)n(CCCCN3CCC(O)(c4ccc(Cl)c(C(F)(F)F)c4)CC3)c(=O)[nH]2)ccc1C [Compound 37, 3{[4-(3-Trifluoromethylphenyl-4-chloro-)-4-hydroxypiperidino]butyl}-6-(3-ethyl-4-methylanilino)uracil] | – | 1.25 (≈ 2.16 µM) | 2.5 (≈ 4.32 µM) | 2.5 (≈ 4.32 µM) | 2.5 (≈ 4.32 µM) | 32 |
| CCc1cc(Nc2cc(=O)n(CCCCOC(=O)CCl)c(=O)[nH]2)ccc1C [Compound 51, 3-[4-(2-chloroacetoxy)butyl]-6-(3-ethyl-4-methylanilino)uracil] | 40 | 0.313 (≈ 0.795 µM) | 2.5 (≈ 6.35 µM) | 5 (≈ 12.7 µM) | 10 (≈ 25.4 µM) | – |
| CCc1cc(Nc2cc(=O)n(CCOCCOCCO)c(=O)[nH]2)ccc1C [Compound 21, 3-{2-[2-Hydroxyethoxy-(2-ethoxy)]ethyl}-6-(3-ethyl-4-methylanilino)uracil] | 87 | 2.5 (≈ 6.62 µM) | 10 (≈ 26.5 µM) | 10 (≈ 26.5 µM) | 10 (≈ 26.5 µM) | – |
| CCc1cc(Nc2cc(=O)n(CCCCCN3CC=C(c4ccc(Cl)cc4)CC3)c(=O)[nH]2)ccc1C [Compound 76, 3-{5-[1-(4-(4-chlorophenyl)-1,2,3,6-tetrahydropyridinyl)]pentyl}-6-(3-ethyl-4-methylanilino)uracil] | 87 | 5 (≈ 9.86 µM) | 80 (≈ 158 µM) | 80 (≈ 158 µM) | 5 (≈ 9.86 µM) | – |
| CCc1cc(Nc2cc(=O)n(CCCC(C)=O)c(=O)[nH]2)ccc1C [Compound 8, 3-(4-Oxopentyl)-6-(3-ethyl-4-methylanilino)uracil] | 61 | < 1.25 | 5 (≈ 15.2 µM) | 5 (≈ 15.2 µM) | 5 (≈ 15.2 µM) | – |
| CCc1cc(Nc2cc(=O)n(CCCCN3CC=C(c4ccc(C)c(C)c4)CC3)c(=O)[nH]2)ccc1C [Compound 81] | 34 | 1.25 (≈ 2.57 µM) | 10 (≈ 20.5 µM) | 10 (≈ 20.5 µM) | 20 (≈ 41.1 µM) | – |
| CCc1cc(Nc2cc(=O)n(CC#CCO)c(=O)[nH]2)ccc1C [Compound 13, 3-(4-Hydoxy-2-butynyl)-6-(3-ethyl-4-methylanilino)uracil] | 68 | 5 (≈ 16 µM) | 10 (≈ 31.9 µM) | 10 (≈ 31.9 µM) | 5 (≈ 16 µM) | – |
| CCc1cc(Nc2cc(=O)n(C/C=C/C(=O)OC)c(=O)[nH]2)ccc1C [Compound 7, 3-[3-(Methoxycarbonyl)-2-propenyl]-6-(3-ethyl-4-methylanilino)uracil] | 320 | 2.5 (≈ 7.28 µM) | 20 (≈ 58.2 µM) | 5 (≈ 14.6 µM) | 10 (≈ 29.1 µM) | – |
| CCc1cc(Nc2cc(=O)n(CCCCNC(=O)C3CC3)c(=O)[nH]2)ccc1C [Compound 49, 3-{4-[(cyclopropylcarbonyl)amino]butyl}-6-(3-ethyl-4-methylanilino)uracil] | 82 | 5 (≈ 13 µM) | 5 (≈ 13 µM) | 2.5 (≈ 6.5 µM) | 5 (≈ 13 µM) | – |
| CCc1cc(Nc2cc(=O)n(CCCCOC(=O)N3CCOCC3)c(=O)[nH]2)ccc1C [Compound 47, 3-[4-(N-morpholinocarbonyloxy)butyl]-6-(3-ethyl-4-methylanilino)uracil] | 71 | < 1.25 | 5 (≈ 11.6 µM) | 5 (≈ 11.6 µM) | 5 (≈ 11.6 µM) | – |
